The subject of experiment [1] is Trypanosoma brucei brucei. The experiment can be described thus: Antitrypanosomal activity against Trypanosoma brucei brucei assessed as trypanosome lysis using recombinant APOL1 protein G1 variant and measured by Alamar blue based fluoresence assay. Type of experiment: functional, organism-based.
For experiment [2], the target named is Apolipoprotein L1 (Homo sapiens, UniProt O14791). The experiment can be described thus: Inhibition of APOL1 G1 variant in human HEK293-T-REx cells measured by Thallium assay. It is filed as cell-based.

On to `Cn1cnc(CNC(=O)[C@H]2C[C@H](c3c(-c4ccc(F)cc4)[nH]c4c(F)cc(F)cc43)C2)c1`, for which the concentration for half-maximal inhibition (IC50) in experiment [1] and in experiment [2] was below 250 nM throughout.
Consider `COCC1(NC(=O)[C@H]2C[C@H](c3c(-c4ccc(F)cc4)[nH]c4c(F)cc(F)cc43)C2)CC1`, for which the IC50 in experiment [1] and in experiment [2] was below 250 nM throughout.
On to `O=C(NCCO)[C@H]1C[C@H](c2c(-c3ccc(F)cc3)[nH]c3c(F)cc(F)cc32)C1`, for which the IC50 in experiment [1] and in experiment [2] was below 250 nM throughout.
For `CC(C)C(CO)NC(=O)[C@H]1C[C@H](c2c(-c3ccc(F)cc3)[nH]c3c(F)cc(F)cc32)C1` (some centres not stated), the results for the concentration for half-maximal inhibition (IC50) in experiment [1] and in experiment [2] were 250 nM and above 1000 nM, respectively.
For `CC(C)(CO)NC(=O)[C@H]1C[C@H](c2c(-c3ccc(F)cc3)[nH]c3c(F)cc(F)cc32)C1` the same measures were 250 nM and below 250 nM.
For `CC(C)N1CCN(C(=O)[C@H]2C[C@H](c3c(-c4ccc(F)cc4)[nH]c4c(F)cc(F)cc43)C2)CC1=O` the same measures were above 1000 nM and above 1000 nM.
For `O=C(NCC(F)(F)F)[C@H]1C[C@H](c2c(-c3ccc(F)cc3)[nH]c3c(F)cc(F)cc32)C1` the same measures were above 1000 nM and 0.25 nM.
`Cc1ccn(CCNC(=O)[C@H]2C[C@H](c3c(-c4ccc(F)cc4)[nH]c4c(F)cc(F)cc43)C2)n1`: the IC50 is 250 nM in experiment [1] and above 1000 nM in experiment [2].
For `O=C(NCC1CC(F)(F)C1)[C@H]1C[C@H](c2c(-c3ccc(F)cc3)[nH]c3c(F)cc(F)cc32)C1` the same measures were above 1000 nM and above 1000 nM.
On the same counts, the results for `O=C1CC(NC(=O)[C@H]2C[C@H](c3c(-c4ccc(F)cc4)[nH]c4c(F)cc(F)cc43)C2)CN1` (some centres not stated) are above 1000 nM and above 1000 nM.
For `O=C(N[C@@H]1CCOC1)[C@H]1C[C@H](c2c(-c3ccc(F)cc3)[nH]c3c(F)cc(F)cc32)C1` the same measures were 250 nM and 0.25 nM.
On to `CC(N)(C(=O)NC(=O)[C@H]1C[C@H](c2c(-c3ccc(F)cc3)[nH]c3c(F)cc(F)cc32)C1)C(F)(F)F` (some centres not stated), for which the IC50 was 250 nM in experiment [1] and above 1000 nM in experiment [2].
On the same counts, the results for `O=C(NCCn1cncn1)[C@H]1C[C@H](c2c(-c3ccc(F)cc3)[nH]c3c(F)cc(F)cc32)C1` are below 250 nM and below 250 nM.
In the case of `O=C([C@H]1C[C@H](c2c(-c3ccc(F)cc3)[nH]c3c(F)cc(F)cc32)C1)N(CCO)C1CC1`, the IC50 was 250 nM in experiment [1] and below 250 nM in experiment [2].
In the case of `COCC1(CNC(=O)[C@H]2C[C@H](c3c(-c4ccc(F)cc4)[nH]c4c(F)cc(F)cc43)C2)CC1`, the IC50 in experiment [1] and in experiment [2] was above 1000 nM throughout.
With `Cn1ccc(CNC(=O)[C@H]2C[C@H](c3c(-c4ccc(F)cc4)[nH]c4c(F)cc(F)cc43)C2)n1`, the results for the IC50 in experiment [1] and in experiment [2] were below 250 nM and 0.25 nM, respectively.
Consider `O=C(CNC(=O)[C@H]1C[C@H](c2c(-c3ccc(F)cc3)[nH]c3c(F)cc(F)cc32)C1)NC1CC1`, for which the IC50 in experiment [1] and in experiment [2] was above 1000 nM each time.
Consider `O=C(NCCn1cnnc1)[C@H]1C[C@H](c2c(-c3ccc(F)cc3)[nH]c3c(F)cc(F)cc32)C1`, for which the IC50 in experiment [1] and in experiment [2] was above 1000 nM throughout.
Take `Cc1cc(CNC(=O)[C@H]2C[C@H](c3c(-c4ccc(F)cc4)[nH]c4c(F)cc(F)cc43)C2)nn1C`: the IC50 in experiment [1] was 250 nM; in experiment [2] it was above 1000 nM.
Take `C[C@H](NC(=O)[C@H]1C[C@H](c2c(-c3ccc(F)cc3)[nH]c3c(F)cc(F)cc32)C1)C(=O)N(C)C`: the IC50 in experiment [1] turned out to be 250 nM; in experiment [2], 0.25 nM.
On the same counts, the results for `NC(=O)C1(NC(=O)[C@H]2C[C@H](c3c(-c4ccc(F)cc4)[nH]c4c(F)cc(F)cc43)C2)CC1` are 250 nM and 0.25 nM.
In the case of `CC(C)CC(NC(=O)[C@H]1C[C@H](c2c(-c3ccc(F)cc3)[nH]c3c(F)cc(F)cc32)C1)C(N)=O` (some centres not stated), the half-inhibitory concentration (IC50) in experiment [1] and in experiment [2] was above 1000 nM in each case.
As to `CN(C(=O)[C@H]1C[C@H](c2c(-c3ccc(F)cc3)[nH]c3c(F)cc(F)cc32)C1)C1(CO)CC1`, the figures for the IC50 in experiment [1] and in experiment [2] were 250 nM and 0.25 nM, respectively.
Regarding `O=C(N[C@H]1C[C@H](O)C1)[C@H]1C[C@H](c2c(-c3ccc(F)cc3)[nH]c3c(F)cc(F)cc32)C1`, the figures for the IC50 in experiment [1] and in experiment [2] were 250 nM and above 1000 nM, respectively.
For `O=C([C@H]1C[C@H](c2c(-c3ccc(F)cc3)[nH]c3c(F)cc(F)cc32)C1)N1C[C@@H](CO)OCC12CC2` the same measures were above 1000 nM and above 1000 nM.
For `O=C(NCCn1cccc1)[C@H]1C[C@H](c2c(-c3ccc(F)cc3)[nH]c3c(F)cc(F)cc32)C1`, the IC50 is 250 nM in experiment [1] and above 1000 nM in experiment [2].
On the same counts, the results for `Cc1cc(CNC(=O)[C@H]2C[C@H](c3c(-c4ccc(F)cc4)[nH]c4c(F)cc(F)cc43)C2)on1` are 250 nM and above 1000 nM.
On the same counts, the results for `C[C@@H](NC(=O)[C@H]1C[C@H](c2c(-c3ccc(F)cc3)[nH]c3c(F)cc(F)cc32)C1)C(N)=O` are above 1000 nM and 0.25 nM.
For `CN(C)C(=O)CN(C)C(=O)[C@H]1C[C@H](c2c(-c3ccc(F)cc3)[nH]c3c(F)cc(F)cc32)C1`, the IC50 was above 1000 nM in experiment [1] and 0.25 nM in experiment [2].
For `O=C(NCC1(O)CCCC1)[C@H]1C[C@H](c2c(-c3ccc(F)cc3)[nH]c3c(F)cc(F)cc32)C1` the same measures were above 1000 nM and above 1000 nM.
Turning to `O=C(NCC1(O)CCC1)[C@H]1C[C@H](c2c(-c3ccc(F)cc3)[nH]c3c(F)cc(F)cc32)C1`, the IC50 in experiment [1] and in experiment [2] was above 1000 nM each time.
Consider `CN1CC(CNC(=O)[C@H]2C[C@H](c3c(-c4ccc(F)cc4)[nH]c4c(F)cc(F)cc43)C2)CC1=O` (some centres not stated), for which the concentration for half-maximal inhibition (IC50) in experiment [1] and in experiment [2] was above 1000 nM in each case.
As to `O=C(NC1(CCO)CC1)[C@H]1C[C@H](c2c(-c3ccc(F)cc3)[nH]c3c(F)cc(F)cc32)C1`, the IC50 was 250 nM in experiment [1] and 0.25 nM in experiment [2].
Regarding `O=C1NCC[C@H]1NC(=O)[C@H]1C[C@H](c2c(-c3ccc(F)cc3)[nH]c3c(F)cc(F)cc32)C1`, the IC50 in experiment [1] is below 250 nM; in experiment [2], 0.25 nM.
On the same counts, the results for `CN(CC1(CO)CC1)C(=O)[C@H]1C[C@H](c2c(-c3ccc(F)cc3)[nH]c3c(F)cc(F)cc32)C1` are above 1000 nM and above 1000 nM.
With `CCNC(=O)[C@@H]1CCCN1C(=O)[C@H]1C[C@H](c2c(-c3ccc(F)cc3)[nH]c3c(F)cc(F)cc32)C1`, the concentration for half-maximal inhibition (IC50) in experiment [1] and in experiment [2] was above 1000 nM in each case.
Consider `C[C@@H](NC(=O)[C@H]1C[C@H](c2c(-c3ccc(F)cc3)[nH]c3c(F)cc(F)cc32)C1)C(=O)N(C)C`, for which the IC50 in experiment [1] and in experiment [2] was above 1000 nM each time.
Turning to `CC(C)(NC(=O)[C@H]1C[C@H](c2c(-c3ccc(F)cc3)[nH]c3c(F)cc(F)cc32)C1)C(=O)N1CCOCC1`, the IC50 in experiment [1] and in experiment [2] was above 1000 nM in each case.
As for `C[C@@H](CO)NC(=O)[C@H]1C[C@H](c2c(-c3ccc(F)cc3)[nH]c3c(F)cc(F)cc32)C1`, the IC50 in experiment [1] and in experiment [2] was below 250 nM each time.
As for `O=C(NCC1CCOCC1)[C@H]1C[C@H](c2c(-c3ccc(F)cc3)[nH]c3c(F)cc(F)cc32)C1`, the IC50 in experiment [1] and in experiment [2] was above 1000 nM in each case.
As for `O=C1NCCCC1NC(=O)[C@H]1C[C@H](c2c(-c3ccc(F)cc3)[nH]c3c(F)cc(F)cc32)C1` (some centres not stated), the IC50 stood at 250 nM in experiment [1] and 0.25 nM in experiment [2].
In the case of `Cc1cnc(NC(=O)[C@H]2C[C@H](c3c(-c4ccc(F)cc4)[nH]c4c(F)cc(F)cc43)C2)o1`, the IC50 in experiment [1] was below 250 nM; in experiment [2], at least 250 nM.
With `CC(NC(=O)[C@H]1C[C@H](c2c(-c3ccc(F)cc3)[nH]c3c(F)cc(F)cc32)C1)c1ccnn1C` (some centres not stated), the IC50 in experiment [1] and in experiment [2] was above 1000 nM each time.
Take `CCOCC1(CNC(=O)[C@H]2C[C@H](c3c(-c4ccc(F)cc4)[nH]c4c(F)cc(F)cc43)C2)CC1`: the IC50 in experiment [1] and in experiment [2] was above 1000 nM throughout.
Take `CN1CCN(C(=O)CNC(=O)[C@H]2C[C@H](c3c(-c4ccc(F)cc4)[nH]c4c(F)cc(F)cc43)C2)CC1`: the IC50 in experiment [1] and in experiment [2] was above 1000 nM each time.
As to `CS(=O)(=O)CCNC(=O)[C@H]1C[C@H](c2c(-c3ccc(F)cc3)[nH]c3c(F)cc(F)cc32)C1`, the IC50 in experiment [1] was above 1000 nM; in experiment [2], below 250 nM.
With `O=C(NC1(CO)CC1)[C@H]1C[C@H](c2c(-c3ccc(F)cc3)[nH]c3c(F)cc(F)cc32)C1`, the IC50 was below 250 nM in experiment [1] and 0.25 nM in experiment [2].
For `Cn1cc(CNC(=O)[C@H]2C[C@H](c3c(-c4ccc(F)cc4)[nH]c4c(F)cc(F)cc43)C2)cn1` the same measures were 250 nM and above 1000 nM.
With `CC(NC(=O)[C@H]1C[C@H](c2c(-c3ccc(F)cc3)[nH]c3c(F)cc(F)cc32)C1)C(N)=O` (some centres not stated), the half-maximal inhibitory concentration (IC50) in experiment [1] was 250 nM; in experiment [2] it was 0.25 nM.
On the same counts, the results for `CC1(O)CN(C(=O)[C@H]2C[C@H](c3c(-c4ccc(F)cc4)[nH]c4c(F)cc(F)cc43)C2)C1` are 250 nM and 0.25 nM.
On to `CC(NC(=O)[C@H]1C[C@H](c2c(-c3ccc(F)cc3)[nH]c3c(F)cc(F)cc32)C1)c1ccn(C)n1` (some centres not stated), for which the IC50 in experiment [1] was below 250 nM; in experiment [2], 0.25 nM.
For `COCc1cc(CNC(=O)[C@H]2C[C@H](c3c(-c4ccc(F)cc4)[nH]c4c(F)cc(F)cc43)C2)n[nH]1` the same measures were above 1000 nM and above 1000 nM.
For `Cn1ccc(NC(=O)[C@H]2C[C@H](c3c(-c4ccc(F)cc4)[nH]c4c(F)cc(F)cc43)C2)n1` the same measures were 250 nM and above 1000 nM.
Take `O=C1CCC(NC(=O)[C@H]2C[C@H](c3c(-c4ccc(F)cc4)[nH]c4c(F)cc(F)cc43)C2)C(=O)N1` (some centres not stated): the IC50 in experiment [1] was determined as 250 nM; in experiment [2], 0.25 nM.
Take `CN(CC(N)=O)C(=O)[C@H]1C[C@H](c2c(-c3ccc(F)cc3)[nH]c3c(F)cc(F)cc32)C1`: the IC50 in experiment [1] came out at 250 nM; in experiment [2], 0.25 nM.
For `NC(=O)C(CO)NC(=O)[C@H]1C[C@H](c2c(-c3ccc(F)cc3)[nH]c3c(F)cc(F)cc32)C1` (some centres not stated) the same measures were below 250 nM and below 250 nM.

These data come from ChEMBL document CHEMBL5052856, “Inhibitors of apol1 and methods of using same” (2021).
